Patent US8293745B2 (Bioniche Life Sciences Inc., priority 2004, dated 2012)

Assays:
HIV-1 = conditions: cited from earlier work
EMC virus = conditions: L929 cells; cited from earlier work
[1] = tested on: GIST of the posterior wall of the stomach; test: Imatinib mesylate treatment of GIST in the same patient
HCV = conditions: 400 mg/day
Method: A person diagnosed with chronic active hepatitis C. […] The patient was positive for antibodies for HCV. Histological confirmation of chronic hepatitis was corroborated by positive hepatic biopsies at month zero.
For 18 months, the patient was treated with interferon alpha-2 at 180 μg/week. For the next 4 months, the patient was given intravenous administration of 6 million units (MU) interferon-beta daily for 6 weeks followed by three times weekly for 20 weeks. Subsequently, the patient was treated with interferon alpha-2 at 180 μg/week plus ribavirin 1000-1200 mg/day for 5 months. Subsequently, the patient was treated with pegylated interferon alpha-2b (PEG-interferon) at 1.5 μg/kg once weekly for 25 months.
Subsequently, the patient was diagnosed with a GIST of the posterior wall of the stomach. […] The patient then underwent surgical resection of the GIST.

c-Kit tyrosine kinase = conditions: cited from earlier work
chronic phase CML = conditions: high-dose, newly diagnosed chronic phase CML; cited from earlier work
[2] = human patient with HCV and GIST, within 2 weeks after the beginning of treatment, FIG. 1

For OCCC#Cc1nc(-c2ccc(F)cc2)c(-c2ccncc2)n1CCCc1ccccc1 [RWJ67657], the HIV-1 replication (HIV-1) is listed as “effective in inhibiting HIV-1 replication”.

For O=c1c(-c2ccc(O)cc2)coc2cc(O)cc(O)c12 [genistein], the EMC virus replication (EMC virus) is given as “suppressed viral replication”.

For CO[C@H]1[C@@H](OC)C[C@H](C)[C@@H](OC)C2=CC(=O)C=C(NC(=O)/C(C)=C/C=C\[C@H](OC)[C@@H](OC(N)=O)/C(C)=C/[C@@H]1C)C2=O [herbimycin A], the EMC virus replication (EMC virus) is listed as “suppressed viral replication”.

With CS(=O)(=O)O.Cc1ccc(NC(=O)c2ccc(CN3CCN(C)CC3)cc2)cc1Nc1nccc(-c2cccnc2)n1 [imatinib mesylate, 4-[(4-methyl-1-piperazinyl)methyl]-N-[4-methyl-3-[[4-(3-pyridinyl)-2-pyrimidinyl]amino]phenyl]-benzamide methanesulfonate] the “remission of GIST” value ([1]; 400 mg/day, pre- and postoperative) was “achieved cytogenetic and molecular remission”, the complication during treatment ([1]; after 5 months preoperative 400 mg/day, treatment halted) was “acute hemorrhage of the tumor” and the “attenuation of the gastric tumor (histologic examination)” value ([1]; after imatinib mesylate treatment) was “significant decreased attenuation”. For the same molecule, the metastasis status ([1]; one year after the initiation of treatment) was “without metastasis”, the “levels of alanine aminotransferase” value (HCV; [2]) was “dramatically decreased” and the “levels of aspartate aminotransferase” value (HCV; [2]) was “dramatically decreased”. The quality of life (HCV; patient-reported) was “clear improvement”.

For Cc1ccc(NC(=O)c2ccc(CN3CCN(C)CC3)cc2)cc1Nc1nccc(-c2cccnc2)n1 [imatinib, 4-[(4-methyl-1-piperazinyl)methyl]-N-[4-methyl-3-[[4-(3-pyridinyl)-2-pyrimidinyl]amino]phenyl]-benzamide], the “inhibition of c-Kit tyrosine kinase activity, wild-type vs constitutively active enzyme” value (c-Kit tyrosine kinase) is given as “equally effective against both wild-type and constitutively active enzyme” and the “rates of complete cytogenetic response and of molecular response” value (chronic phase CML) is given as “higher rates”.
